Patent publication US8642053B2, “Potentiated topical composition” (priority 2001, dated 2014)

Experiments:
[1] = test system: shaved skin of albino rabbits; experiment: Skin irritation test; type: in vivo, rabbit; conditions: scale 1 (no irritation) to 10 (maximum irritation); 24 hours exposure
Description: (§1) Only very mild irritation (score 2 on a 1-10 scale) was observed.

[2] = In vitro water binding capacity, stratum corneum pieces, 6 hrs at 85% relative humidity; conditions: for Water binding capacity after 6 hrs: aqueous 10% by weight solution; for Uptake of water after 6 hrs / Uptake of water after 6 hrs %: pre-incubated with 10% (by weight) solution, relative humidity 85%, room temperature
[3] = test system: eye (conjunctiva) of albino rabbits; experiment: Eye irritation test; type: in vivo, rabbit; conditions: 1-10 scale
Description: as §1

[4] = In vitro water binding capacity, stratum corneum pieces, 24 hours at 85% relative humidity; design: species or system human; conditions: after 24 hours, mean, pentane-1,5-diol 20%, urea 10%, control water content subtracted
Method: Pieces of stratum corneum from the sole of 7 healthy volunteers were used. […] The specimens were removed after 24 hours for weighing. […] The water binding capacity was estimated by subtracting the WC for stratum corneum incubated with distilled water for 24 hours from the WC for the stratum corneum pieces incubated with the test substances for 24 hours. […] While the latter composition does give rise to itching when applied to eczematous skin, this negative effect is not encountered with the composition according to the invention.

[5] = aqueous solution containing 20% of pentane-1,5-diol

Water binding capacity after 6 hrs [2]	Water binding capacity [2, 5]	Water content [2, 5]	Uptake of water after 6 hrs [2]	Uptake of water after 6 hrs % [2]	Water binding capacity [4]	Water binding capacity ([4]; listed as Pentane-1,5-diol)	Water binding capacity ([4]; listed as Urea)	SMILES	Skin irritation score [1]	Eye irritation score [3]
9 % by weight	13 % by weight	24%	0.0075 mg	20%	23%	23%		OCCCCCO [pentane-1,5-diol]	1	2
17 % by weight			0.0109 mg	28%	16%		16%	NC(N)=O [urea]		

SMILES	Water binding capacity after 6 hrs [2]	Water binding capacity [2, 5]	Water content [2, 5]	Uptake of water after 6 hrs [2]	Uptake of water after 6 hrs % [2]	Water binding capacity [4]	Water binding capacity ([4]; listed as Pentane-1,5-diol)	Water binding capacity ([4]; listed as Urea)	Skin irritation score [1]	Eye irritation score [3]
CC(O)CO (centres unmarked) [propane-1,2-diol]	7 % by weight			0.0032 mg	18%					
